In patent US12319664B2, “Herbicidally active 3-phenylisoxazoline-5-carboxamides of cyclopentenylcarboxylic acid derivatives” (Bayer Aktiengesellschaft, priority 2018, dated 2025):

Columns and labels:
[1] = system: ALOMY; assay: Post-emergence herbicidal action against ALOMY; format: in vivo, Alopecurus myosuroides; conditions: application rate 80 g/ha, rated visually after about 3 weeks
Procedure, shortened: (§1)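 Test plants grown from seed in greenhouse pots of sandy loam were treated post-emergence at the one-leaf stage. Damage, from 0% (like controls) to 100% (plants died), was assessed visually about 3 weeks later.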

[2] = system: AVEFA; assay: Post-emergence herbicidal action against AVEFA; format: in vivo, Avena fatua; conditions: application rate 80 g/ha, rated visually after about 3 weeks
Procedure, shortened: as §1

[3] = system: ECHCG; assay: Post-emergence herbicidal action against ECHCG; format: in vivo, Echinochloa crus-galli; conditions: application rate 80 g/ha, rated visually after about 3 weeks
Procedure, shortened: as §1

[4] = system: LOLRI; assay: Post-emergence herbicidal action against LOLRI; format: in vivo, Lolium rigidum; conditions: application rate 80 g/ha, rated visually after about 3 weeks
Procedure, shortened: as §1

[5] = system: SETVI; assay: Post-emergence herbicidal action against SETVI; format: in vivo, Setaria viridis; conditions: application rate 80 g/ha, rated visually after about 3 weeks
Procedure, shortened: as §1

[6] = system: ABUTH; assay: Post-emergence herbicidal action against ABUTH; format: in vivo, Abutilon theophrasti; conditions: application rate 80 g/ha, rated visually about 3 weeks after treatment
Procedure, shortened: as §1

[7] = system: AMARE; assay: Post-emergence herbicidal action against AMARE; format: in vivo, Amaranthus retroflexus; conditions: application rate 80 g/ha, rated visually about 3 weeks after treatment
Procedure, shortened: as §1

[8] = system: PHBPU; assay: Post-emergence herbicidal action against PHBPU; format: in vivo, Pharbitis purpurea; conditions: application rate 80 g/ha, rated visually about 3 weeks after treatment
Experimental: (§2) [table] 2. Post-emergence herbicidal action against harmful plants and crop plant compatibility Seeds of monocotyledonous and dicotyledonous weeds and crop plants are placed in sandy loam in plastic or wood-fibre pots, covered with soil and cultivated in a greenhouse under controlled growth conditions. 2 to 3 weeks after sowing, the test plants are treated at the one-leaf stage. The compounds of the invention, formulated in the form of wettable powders (WP) or as emulsion concentrates (EC), are then sprayed onto the green parts of the plants as aqueous suspension or emulsion with addition of 0.5% additive at a water application rate of 600 l/ha (converted). After the test plants have been kept in the greenhouse under optimum growth conditions for about 3 weeks, the activity of the preparations is rated visually in comparison to untreated controls. For example, 100% activity=the plants have died, 0% activity=like control plants.

[9] = system: POLCO; assay: Post-emergence herbicidal action against POLCO; format: in vivo, Polygonum convolvulus; conditions: application rate 80 g/ha, rated visually about 3 weeks after treatment
Procedure, shortened: as §1

[10] = system: STEME; assay: Post-emergence herbicidal action against STEME; format: in vivo, Stellaria media; conditions: application rate 80 g/ha, rated visually about 3 weeks after treatment
Procedure, shortened: as §1

[11] = system: VIOTR; assay: Post-emergence herbicidal action against VIOTR; format: in vivo, Viola tricolor; conditions: application rate 80 g/ha, rated visually about 3 weeks after treatment
Experimental: as §2

[12] = system: VERPE; assay: Post-emergence herbicidal action against VERPE; format: in vivo, Veronica persica; conditions: application rate 80 g/ha
Procedure, shortened: as §1

[13] = system: HORMU; assay: Post-emergence herbicidal action against HORMU; format: in vivo, Hordeum murinum; conditions: application rate 80 g/ha
Procedure, shortened: as §1

| SMILES | Herbicidal action against [%] ALOMY [1] [%] | Herbicidal action against [%] AVEFA [2] [%] | Herbicidal action against [%] ECHCG [3] [%] | Herbicidal action against [%] LOLRI [4] [%] | Herbicidal action against [%] SETVI [5] [%] | Herbicidal action against [%] ABUTH [6] [%] | Herbicidal action against [%] AMARE [7] [%] | Herbicidal action against [%] PHBPU [8] [%] | Herbicidal action against [%] POLCO [9] [%] | Herbicidal action against [%] STEME [10] [%] | Herbicidal action against [%] VIOTR [11] [%] | Herbicidal action against [%] VERPE [12] [%] | Herbicidal action against [%] HORMU [13] [%] |
| --- | --- | --- | --- | --- | --- | --- | --- | --- | --- | --- | --- | --- | --- |
| CCOC(=O)C1=CC[C@H](NC(=O)C2(C)CC(c3cc(F)cc(F)c3)=NO2)C1 (stereo partly drawn) [III-07] | 90 | 90 | 90 | 90 | 90 | 80 | 90 | 80 | 80 | 90 | 90 | 90 | 80 |
| C=CC1(C(=O)NC2C=CC(C(=O)OC(C)(C)C)C2)CC(c2cc(F)cc(F)c2)=NO1 (mixture of isomers) [Example I-060] | 90 | 90 | 90 | – | – | – | 80 | 80 | – | – | 80 | – | 90 |
| COC(=O)[C@@H]1C=C[C@H](NC(=O)C2(C(F)(F)F)CC(c3cc(F)cc(C#N)c3)=NO2)C1 (single isomer, unassigned) [Example I-097] | 100 | 90 | 90 | 100 | 90 | – | 80 | 80 | 80 | 80 | 80 | 80 | 90 |
| CC(C)C(C#N)NC(=O)C1C=CC(NC(=O)C2(C(F)(F)F)CC(c3cc(F)cc(F)c3)=NO2)C1 (mixture of isomers) [II-35] | 90 | 100 | – | 90 | 80 | 80 | 90 | 90 | 90 | 90 | 90 | 90 | 80 |
| CC(C)(C#N)NC(=O)C1C=CC(NC(=O)C2(C)CC(c3cc(F)cc(F)c3)=NO2)C1 (mixture of isomers) [II-10] | 90 | 90 | 90 | 90 | – | – | 80 | 90 | 90 | 90 | 90 | 80 | – |
| CCOC(=O)C1C=CC(NC(=O)C2(C(F)(F)F)CC(c3cccc(C#N)c3)=NO2)C1 (mixture of isomers) [Example I-072] | 90 | 100 | 90 | 90 | 80 | 80 | 80 | – | 90 | 80 | 80 | 80 | 90 |
| COC(=O)C(C)(C)NC(=O)C1C=CC(NC(=O)C2(C(F)(F)F)CC(c3cc(F)cc(F)c3)=NO2)C1 (mixture of isomers) [II-36] | 90 | 100 | – | 90 | – | – | 90 | 90 | 90 | – | 90 | 80 | 80 |
| COC(=O)C1C=CC(NC(=O)C2(C)CC(c3cccc(C#N)c3)=NO2)C1 (mixture of isomers) [Example I-080] | 90 | 100 | 90 | 90 | 80 | – | 90 | 90 | 90 | 90 | 80 | 90 | 90 |
| N#Cc1cccc(C2=NOC(C(=O)NC3C=CC(C(=O)OCCCl)C3)(C(F)(F)F)C2)c1 (mixture of isomers) [Example I-088] | – | 100 | 90 | 100 | 90 | 90 | 90 | 90 | 90 | 90 | 90 | 90 | 90 |
| CC1(C(=O)NC2C=CC(C(=O)O)C2)CC(c2cc(F)cc(C#N)c2)=NO1 (mixture of isomers) [Example I-075] | 100 | – | 90 | 100 | 80 | 80 | 90 | 90 | 90 | 90 | 90 | 90 | 100 |
| COc1cc(OC)cc(C2=NOC(C(=O)NC3C=CC(C(=O)OCC(F)(F)F)C3)(C(F)(F)F)C2)c1 (mixture of isomers) [Example I-052] | 100 | 100 | 80 | 100 | 90 | 90 | 90 | 80 | – | 80 | 80 | 80 | 100 |
| C=CC1(C(=O)N[C@H]2CC=C(C(=O)OCCOCC)C2)CC(c2cc(F)cc(F)c2)=NO1 (stereo partly drawn) [III-16] | – | 100 | 90 | 100 | 80 | 80 | 90 | 90 | 90 | 80 | 90 | 80 | 90 |
| CC1(C(=O)N[C@H]2CC=C(C(=O)OCc3ccccc3)C2)CC(c2cc(F)cc(F)c2)=NO1 (stereo partly drawn) [III-12] | 100 | 100 | – | 100 | 80 | 90 | 90 | 90 | 90 | 80 | 90 | 90 | 100 |
| COC(=O)C1=CC[C@H](NC(=O)C2(C)CC(c3cc(F)cc(F)c3)=NO2)C1 (stereo partly drawn) [III-10] | 100 | 100 | 90 | 100 | 90 | 90 | 90 | 90 | – | 90 | 90 | 90 | 100 |
